“Also recorded” adds a separate entry of the source.
How the values were obtained:
hALDH2 = biological target: T1, hALDH2 (UniProt P05091); assay: ALDH-2 assay (inhibition of hALDH2); assay type: biochemical, human
T1 sequence (P05091 1-517): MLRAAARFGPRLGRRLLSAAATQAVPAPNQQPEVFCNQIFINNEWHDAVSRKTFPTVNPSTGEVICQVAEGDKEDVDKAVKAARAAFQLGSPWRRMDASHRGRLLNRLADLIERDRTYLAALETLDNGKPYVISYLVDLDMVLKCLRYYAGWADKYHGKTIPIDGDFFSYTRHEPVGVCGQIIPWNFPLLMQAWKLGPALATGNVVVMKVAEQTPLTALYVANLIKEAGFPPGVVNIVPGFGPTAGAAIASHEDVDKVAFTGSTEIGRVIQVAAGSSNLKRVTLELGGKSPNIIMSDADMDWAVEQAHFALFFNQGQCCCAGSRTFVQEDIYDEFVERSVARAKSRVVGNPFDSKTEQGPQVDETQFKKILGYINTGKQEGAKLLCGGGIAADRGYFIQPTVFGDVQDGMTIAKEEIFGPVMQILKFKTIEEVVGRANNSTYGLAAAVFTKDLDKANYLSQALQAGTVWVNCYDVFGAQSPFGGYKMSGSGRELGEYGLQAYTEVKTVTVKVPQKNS

hMAO-A = biological target: T2, hMAO-A (UniProt P21397); assay: MAO assay (inhibition of hMAO-A); assay type: biochemical, human; details: read-out: IC50 hMAO-A (No inhibition up to 10 μM)
T2 sequence (P21397 1-527): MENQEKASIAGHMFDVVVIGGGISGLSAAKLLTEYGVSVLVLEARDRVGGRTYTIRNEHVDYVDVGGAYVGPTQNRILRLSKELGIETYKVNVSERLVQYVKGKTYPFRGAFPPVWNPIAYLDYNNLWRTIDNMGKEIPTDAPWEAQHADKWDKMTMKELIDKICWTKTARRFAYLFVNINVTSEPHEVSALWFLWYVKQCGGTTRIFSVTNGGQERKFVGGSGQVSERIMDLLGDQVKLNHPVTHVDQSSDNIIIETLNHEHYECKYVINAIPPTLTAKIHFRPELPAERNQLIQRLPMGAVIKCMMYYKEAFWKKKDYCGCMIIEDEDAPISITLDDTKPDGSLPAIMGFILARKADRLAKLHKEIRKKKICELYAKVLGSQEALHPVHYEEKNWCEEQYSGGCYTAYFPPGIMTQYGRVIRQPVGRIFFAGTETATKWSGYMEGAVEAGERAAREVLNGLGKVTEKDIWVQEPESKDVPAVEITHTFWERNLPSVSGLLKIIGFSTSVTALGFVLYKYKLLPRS

hMAO-B = biological target: T3, hMAO-B (Homo sapiens, UniProt P27338); assay: MAO assay (inhibition of hMAO-B); assay type: biochemical; details: read-out: IC50 hMAO-B (No inhibition up to 10 μM)
T3 sequence (P27338 2-520 limits assumed): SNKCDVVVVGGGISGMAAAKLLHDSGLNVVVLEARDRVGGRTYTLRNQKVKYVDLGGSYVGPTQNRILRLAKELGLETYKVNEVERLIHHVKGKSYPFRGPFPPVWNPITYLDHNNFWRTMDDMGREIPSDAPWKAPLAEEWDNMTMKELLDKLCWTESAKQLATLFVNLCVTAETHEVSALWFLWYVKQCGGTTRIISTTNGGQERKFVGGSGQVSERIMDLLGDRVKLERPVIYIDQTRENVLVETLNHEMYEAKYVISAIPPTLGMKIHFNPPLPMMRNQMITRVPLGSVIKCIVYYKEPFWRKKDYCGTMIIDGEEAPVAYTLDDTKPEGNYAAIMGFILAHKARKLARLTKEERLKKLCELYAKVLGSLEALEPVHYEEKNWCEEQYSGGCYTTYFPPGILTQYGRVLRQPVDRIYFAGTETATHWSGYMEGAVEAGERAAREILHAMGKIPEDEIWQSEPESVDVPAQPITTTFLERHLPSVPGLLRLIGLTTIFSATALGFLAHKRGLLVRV

[1] = biological target: T4, human mitochondrial aldehyde dehydrogenase (ALDH-2) (Homo sapiens, UniProt P05091); details: background statement, U.S. Pat. Nos. 5,624,910 and 6,121,010; cited from earlier work
T4 sequence (P05091 18-517): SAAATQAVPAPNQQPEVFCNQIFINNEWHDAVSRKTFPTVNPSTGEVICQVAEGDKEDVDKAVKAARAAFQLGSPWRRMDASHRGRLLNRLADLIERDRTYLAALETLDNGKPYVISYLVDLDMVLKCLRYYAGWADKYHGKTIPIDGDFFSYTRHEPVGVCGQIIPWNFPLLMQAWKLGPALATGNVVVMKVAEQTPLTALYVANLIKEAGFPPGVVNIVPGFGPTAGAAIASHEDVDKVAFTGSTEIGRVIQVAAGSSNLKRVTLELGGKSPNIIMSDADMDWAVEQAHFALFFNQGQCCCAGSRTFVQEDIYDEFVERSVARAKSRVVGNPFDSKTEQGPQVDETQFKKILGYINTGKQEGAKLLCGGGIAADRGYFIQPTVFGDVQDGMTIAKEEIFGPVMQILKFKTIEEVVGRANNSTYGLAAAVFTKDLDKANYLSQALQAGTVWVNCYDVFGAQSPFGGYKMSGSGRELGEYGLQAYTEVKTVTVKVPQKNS

Syrian golden hamsters = details: background statement, Keung and Vallee; U.S. Pat. Nos. 5,624,910 and 6,121,010; cited from earlier work

Row | SMILES | hALDH2 % inhibition (hALDH2; at 1 μM) [% inhibition at 1 μM] | IC50 (hMAO-A) [µM] | IC50 (hMAO-B) [µM] | IC50 (hALDH2) [µM] | inhibition of human mitochondrial ALDH-2 [1] | suppression of ethanol intake (Syrian golden hamsters)
1 | N#Cc1cccc(-c2nc(COc3ccc4c(=O)n(-c5ccc(O)cc5)cnc4c3)no2)c1 [3-(3-{[3-(4-hydroxyphenyl)-4-oxo-3-hydroquinazolin-7-yloxy]methyl}-1,2,4-oxadiazol-5-yl)benzenecarbonitrile] | 25 | > 10 | > 10 | – | – | –
2 | O=c1c2ccc(OCc3noc(-c4cccc(C(F)(F)F)c4)n3)cc2ncn1-c1ccc(O)cc1 [3-(4-hydroxyphenyl)-7-({5-[3-(trifluoromethyl)phenyl](1,2,4-oxadiazol-3-yl)}methoxy)-3-hydroquinazolin-4-one] | – | > 10 | > 10 | 0.03 | – | –
3 | COc1ccc(-c2nc(COc3ccc4c(=O)n(-c5ccc(O)cc5)cnc4c3)no2)cc1C(F)(F)F [3-(4-hydroxyphenyl)-7-({5-[4-methoxy-3-(trifluoromethyl)phenyl](1,2,4-oxadiazol-3-yl)}methoxy)-3-hydroquinazolin-4-one] | – | > 10 | > 10 | 0.1 | – | –
4 | O=c1c2ccc(OCc3noc(-c4ccccc4)n3)cc2ncn1-c1ccc(O)cc1 [3-(4-hydroxyphenyl)-7-[(5-phenyl(1,2,4-oxadiazol-3-yl))methoxy]-3-hydroquinazolin-4-one] | – | > 10 | > 10 | 0.107 | – | –
5 | N#Cc1cccc(COc2ccc3c(=O)n(-c4ccc(O)cc4)cnc3c2)c1 [3-{[3-(4-hydroxyphenyl)-4-oxo-3-hydroquinazolin-7-yloxy]methyl} benzenecarbonitrile] | – | > 10 | > 10 | 0.196 | – | –
6 | NC(=O)c1cccc(COc2ccc3c(=O)n(-c4ccc(O)cc4)cnc3c2)c1 [3-{[3-(4-hydroxyphenyl)-4-oxo-3-hydroquinazolin-7-yloxy]methyl}benzamide] | – | > 10 | > 10 | 0.021 | – | –
7 | O=c1c2ccc(OCc3noc(-c4cc(C(F)(F)F)ccc4C(F)(F)F)n3)cc2ncn1-c1ccc(O)cc1 [7-({5-[2,5-bis(trifluoromethyl)phenyl](1,2,4-oxadiazol-3-yl)}methoxy)-3-(4-hydroxyphenyl)-3-hydroquinazolin-4-one] | – | > 10 | > 10 | 0.312 | – | –
8 | COc1ccccc1-c1nc(COc2ccc3c(=O)n(-c4ccc(O)cc4)cnc3c2)no1 [7-({5-[2-methoxyphenyl](1,2,4-oxadiazol-3-yl)}methoxy)-3-(4-hydroxyphenyl)-3-hydroquinazolin-4-one] | – | > 10 | > 10 | 0.09 | – | –
9 | O=c1c2ccc(OCc3noc(-c4cc(C(F)(F)F)cc(C(F)(F)F)c4)n3)cc2ncn1-c1ccc(O)cc1 [7-({5-[3,5-bis(trifluoromethyl)phenyl](1,2,4-oxadiazol-3-yl)}methoxy)-3-(4-hydroxyphenyl)-3-hydroquinazolin-4-one] | – | > 10 | > 10 | 0.07 | – | –
10 | O=c1c2ccc(OCc3noc(-c4cc(F)cc(C(F)(F)F)c4)n3)cc2ncn1-c1ccc(O)cc1 [7-({5-[5-fluoro-3-(trifluoromethyl)phenyl](1,2,4-oxadiazol-3-yl)}methoxy)-3-(4-hydroxyphenyl)-3-hydroquinazolin-4-one] | – | > 10 | > 10 | 0.07 | – | –
11 | O=c1c(-c2ccc(O)cc2)coc2cc(O[C@@H]3O[C@H](CO)[C@@H](O)[C@H](O)[C@H]3O)ccc12 [Daidzin, daidzin] | – | – | – | – | potent and selective inhibitors | –
12 | C=CCOC(=O)c1cccc(COc2ccc3c(=O)n(-c4ccc(O)cc4)cnc3c2)c1 [Example 2A, prop-2-enyl 3-{[3-(4-hydroxyphenyl)-4-oxo-3-hydroquinazolin-7-yloxy]methyl} benzoate] | – | > 10 | > 10 | 0.196 | – | –
13 | O=C(O)c1cccc(COc2ccc3c(=O)n(-c4ccc(O)cc4)cnc3c2)c1 [Example 3A, 3-{[3-(4-hydroxyphenyl)-4-oxo-3-hydroquinazolin-7-yloxy]methyl}benzoic acid] | – | > 10 | > 10 | 0.136 | – | –
14 | O=c1c(-c2ccc(O)cc2)coc2cc(O)ccc12 [daidzein] | – | – | – | – | – | effective in suppressing ethanol intake; also recorded: effective in suppressing ethanol uptake
15 | CC(C)OC(=O)c1cccc(COc2ccc3c(=O)n(-c4ccc(O)cc4)cnc3c2)c1 [methylethyl 3-{[3-(4-hydroxyphenyl)-4-oxo-3-hydroquinazolin-7-yloxy]methyl} benzoate] | – | > 10 | > 10 | 0.095 | – | –

Reference: patent publication US7951813B2, “Quinazolinone derivatives as ALDH-2 inhibitors” (Gilead Sciences, Inc., priority 2007, dated 2011)
